Reference: US12398142B2, “Abelson non-tyrosine kinase compounds for the treatment of neurodegenerative diseases” (Emory University, priority 2019, dated 2025)
Like-named read-outs stand apart in the source and are kept apart here.

Key:
CYP2D6 = CYP2D6 (Homo sapiens (Human), UniProt P10635); assay: CYP2D6 IC50; type: in vitro ADME; settings: unit given as mM
hERG = hERG (Homo sapiens (Human), UniProt Q12809); assay: hERG profiling, fluorescent Tracer binding competition (FP); settings: for SI / selectivity ratio at 4 h: human, pH 7.5
Description: Compounds were prepared as 10 mM DMSO stock and stored at −80° C.
Assay Format: The assay is based on the competition of fluorescently labeled Tracer binding to the membrane preparation containing hERG.
Assay conditions: 1 nM Predictor™ hERG Tracer Red; 1X Predictor™ hERG Membrane
Assay Procedure: Compounds in DMSO were added into the Membrane mixture by using Acoustic Technology. Tracer was added, and gentled mixed in the dark. FP was measured after 4 hours incubation at room temperature and mP calculated.

CYP3A4 = CYP3A4 (Homo sapiens (Human), UniProt P08684); assay: CYP3A4 IC50; type: in vitro ADME; settings: unit given as mM
ABL1 = ABL1 (Homo sapiens (Human), UniProt P00519); assay: Kinase profiling, ABL1 10-dose IC50; type: biochemical
[1] = IC50 of Tracer Binding hERG AVERAGE, first run, average of duplicates
[2] = IC50 of Tracer Binding hERG Data 1, first run, 4 hours incubation
[3] = IC50 of Tracer Binding hERG Data 2, first run
[4] = hERG IC50, summary table, unit given as mM
[5] = 10 μM ATP, first run (TK3-141, TK3-144, CD-1-002), read-out: Compound IC50 ABL1 Data 1
[6] = 10 μM ATP, first run, average of duplicates, read-out: Compound IC50 ABL1 Avg
[7] = 10 μM ATP, first run, read-out: Compound IC50 ABL1 Data 2
[8] = summary table, read-out: Abl1 IC50
[9] = Average hERG (IC50), second run, average
[10] = IC50 of Tracer Binding hERG Data 1, second run
[11] = IC50 of Tracer Binding hERG Data 2, second run
[12] = 10 μM ATP, second run (CD-1-051, ZD-3-167, CD-1-067), read-out: Compound IC50 ABL1 Data 1
[13] = 10 μM ATP, second run, average of duplicates, read-out: Compound IC50 ABL1 Avg
[14] = 10 μM ATP, second run, read-out: Compound IC50 ABL1 Data 2

Sequence of CYP2D6 (P10635 whole entry, species assumed): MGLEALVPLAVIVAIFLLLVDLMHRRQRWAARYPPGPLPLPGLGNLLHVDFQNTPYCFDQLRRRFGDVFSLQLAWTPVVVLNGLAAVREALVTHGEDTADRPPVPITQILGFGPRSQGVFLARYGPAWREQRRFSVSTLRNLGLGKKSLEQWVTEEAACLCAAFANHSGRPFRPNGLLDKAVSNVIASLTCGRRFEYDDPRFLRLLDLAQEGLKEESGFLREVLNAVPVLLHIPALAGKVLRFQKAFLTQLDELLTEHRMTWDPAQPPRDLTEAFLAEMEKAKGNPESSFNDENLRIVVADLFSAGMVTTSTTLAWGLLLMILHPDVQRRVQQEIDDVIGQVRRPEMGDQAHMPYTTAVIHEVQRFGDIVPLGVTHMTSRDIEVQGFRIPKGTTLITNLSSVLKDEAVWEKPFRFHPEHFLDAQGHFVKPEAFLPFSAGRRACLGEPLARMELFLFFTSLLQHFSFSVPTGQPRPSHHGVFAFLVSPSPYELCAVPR
Sequence of ABL1 (P00519 whole entry): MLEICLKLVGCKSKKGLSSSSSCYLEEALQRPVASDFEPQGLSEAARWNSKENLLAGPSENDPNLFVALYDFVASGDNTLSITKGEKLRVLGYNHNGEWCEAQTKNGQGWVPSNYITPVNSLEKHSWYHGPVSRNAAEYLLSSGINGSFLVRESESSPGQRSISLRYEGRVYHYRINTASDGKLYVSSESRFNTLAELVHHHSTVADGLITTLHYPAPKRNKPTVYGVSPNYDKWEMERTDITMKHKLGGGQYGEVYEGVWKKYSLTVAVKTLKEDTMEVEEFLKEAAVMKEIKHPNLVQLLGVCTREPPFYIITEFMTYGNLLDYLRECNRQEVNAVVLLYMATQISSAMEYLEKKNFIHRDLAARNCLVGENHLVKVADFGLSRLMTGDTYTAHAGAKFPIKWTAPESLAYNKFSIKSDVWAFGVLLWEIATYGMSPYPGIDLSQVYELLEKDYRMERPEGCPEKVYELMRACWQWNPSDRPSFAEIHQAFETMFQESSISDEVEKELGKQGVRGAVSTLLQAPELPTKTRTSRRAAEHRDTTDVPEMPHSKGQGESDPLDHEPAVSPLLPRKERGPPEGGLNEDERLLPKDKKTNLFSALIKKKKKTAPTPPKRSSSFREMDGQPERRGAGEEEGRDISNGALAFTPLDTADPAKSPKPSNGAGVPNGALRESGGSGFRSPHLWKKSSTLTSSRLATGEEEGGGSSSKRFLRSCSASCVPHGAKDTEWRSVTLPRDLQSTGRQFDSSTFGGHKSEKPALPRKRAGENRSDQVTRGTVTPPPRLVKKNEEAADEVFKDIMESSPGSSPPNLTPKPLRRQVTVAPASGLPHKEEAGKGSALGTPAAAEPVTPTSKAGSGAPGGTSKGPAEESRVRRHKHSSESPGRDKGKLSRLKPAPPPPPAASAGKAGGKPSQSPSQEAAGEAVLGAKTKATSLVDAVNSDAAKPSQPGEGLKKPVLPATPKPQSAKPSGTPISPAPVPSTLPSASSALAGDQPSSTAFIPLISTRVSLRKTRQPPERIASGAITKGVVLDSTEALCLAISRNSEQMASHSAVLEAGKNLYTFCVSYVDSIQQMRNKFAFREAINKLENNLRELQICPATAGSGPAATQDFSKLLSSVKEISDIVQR
Sequence of CYP3A4 (P08684 whole entry, species assumed): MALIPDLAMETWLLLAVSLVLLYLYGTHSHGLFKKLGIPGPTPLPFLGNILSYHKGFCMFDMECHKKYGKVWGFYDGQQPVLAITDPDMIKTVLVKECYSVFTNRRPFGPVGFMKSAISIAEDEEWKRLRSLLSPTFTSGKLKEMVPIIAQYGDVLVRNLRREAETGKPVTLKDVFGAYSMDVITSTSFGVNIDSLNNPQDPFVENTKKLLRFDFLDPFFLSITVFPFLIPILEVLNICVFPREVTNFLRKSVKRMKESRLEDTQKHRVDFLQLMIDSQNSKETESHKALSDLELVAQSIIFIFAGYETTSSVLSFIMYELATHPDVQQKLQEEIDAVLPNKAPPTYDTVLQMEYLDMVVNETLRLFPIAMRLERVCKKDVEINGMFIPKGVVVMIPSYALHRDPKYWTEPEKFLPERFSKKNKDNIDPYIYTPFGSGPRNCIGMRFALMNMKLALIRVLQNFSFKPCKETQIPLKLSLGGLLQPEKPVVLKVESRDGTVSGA
Sequence of hERG (Q12809 whole entry): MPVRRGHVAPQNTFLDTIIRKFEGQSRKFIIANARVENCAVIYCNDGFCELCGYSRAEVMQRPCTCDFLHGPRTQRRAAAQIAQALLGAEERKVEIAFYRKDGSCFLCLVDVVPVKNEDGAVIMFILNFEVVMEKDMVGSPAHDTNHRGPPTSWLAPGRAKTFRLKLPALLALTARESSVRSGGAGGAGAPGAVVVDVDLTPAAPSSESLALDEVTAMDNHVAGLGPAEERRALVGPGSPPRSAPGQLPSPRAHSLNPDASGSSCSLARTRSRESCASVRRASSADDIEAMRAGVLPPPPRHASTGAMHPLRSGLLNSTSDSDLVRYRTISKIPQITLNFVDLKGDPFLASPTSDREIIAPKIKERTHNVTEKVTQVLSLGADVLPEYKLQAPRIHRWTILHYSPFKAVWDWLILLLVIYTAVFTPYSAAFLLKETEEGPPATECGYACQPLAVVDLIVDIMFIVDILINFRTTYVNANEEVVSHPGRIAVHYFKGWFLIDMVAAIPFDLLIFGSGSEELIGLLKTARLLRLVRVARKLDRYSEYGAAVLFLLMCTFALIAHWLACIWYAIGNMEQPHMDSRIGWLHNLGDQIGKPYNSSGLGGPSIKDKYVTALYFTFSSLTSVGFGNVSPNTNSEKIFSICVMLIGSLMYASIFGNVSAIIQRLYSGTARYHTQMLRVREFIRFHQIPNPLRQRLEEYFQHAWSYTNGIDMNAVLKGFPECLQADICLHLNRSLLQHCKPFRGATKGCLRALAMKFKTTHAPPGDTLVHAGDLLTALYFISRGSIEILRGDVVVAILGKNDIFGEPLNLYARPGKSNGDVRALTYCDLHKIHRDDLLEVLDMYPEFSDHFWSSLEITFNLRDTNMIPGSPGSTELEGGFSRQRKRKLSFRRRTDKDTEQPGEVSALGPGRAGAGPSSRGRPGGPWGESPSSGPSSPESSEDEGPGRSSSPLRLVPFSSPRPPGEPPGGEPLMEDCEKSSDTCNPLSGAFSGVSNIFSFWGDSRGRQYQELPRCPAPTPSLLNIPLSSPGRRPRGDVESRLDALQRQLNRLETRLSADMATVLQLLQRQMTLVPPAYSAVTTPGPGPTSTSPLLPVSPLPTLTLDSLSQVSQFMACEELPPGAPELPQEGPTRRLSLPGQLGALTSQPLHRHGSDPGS

| SMILES | IC50 (CYP2D6) [mM] | IC50 (hERG; [1]) [µM] | IC50 (hERG; [2]) [µM] | IC50 (hERG; [3]) [µM] | IC50 (hERG; [4]) [µM] | SI (hERG) | IC50 (CYP3A4) [mM] | IC50 (ABL1; [5]) [µM] | IC50 (ABL1; [6]) [µM] | IC50 (ABL1; [7]) [µM] | IC50 (ABL1; [8]) [µM] | IC50 (hERG; [9]) [µM] | IC50 (hERG; [10]) [µM] | IC50 (hERG; [11]) [µM] | selectivity ratio at 4 h (hERG) | IC50 (ABL1; [12]) [µM] | IC50 (ABL1; [13]) [µM] | IC50 (ABL1; [14]) [µM] |
| --- | --- | --- | --- | --- | --- | --- | --- | --- | --- | --- | --- | --- | --- | --- | --- | --- | --- | --- |
| COCCN1CCN(Cc2ccc(NC(=O)c3ccc(C)c(C#Cc4cnc5cccnn45)c3)cc2C2CC2)CC1 [CD-1-002, N-[3-cyclopropyl-4-[[4-(2-methoxyethyl)piperazin-1-yl]methyl]phenyl]-3-(2-imidazo[1,2-b]pyridazin-3-ylethynyl)-4-methyl-benzamide] | 0.0248 | 0.081 | 0.062 | 0.1 | 0.081 | 126 | 0.0128 | 0.000686 | 0.000643 | 0.000601 | 0.00064 | – | – | – | – | – | – | – |
| Cc1ccc(C(=O)Nc2ccc(CN3CCc4cn[nH]c4C3)c(Cl)c2)cc1C#Cc1cnc2cccnn12 [CD-1-051, N-[3-chloro-4-(1,4,5,7-tetrahydropyrazolo[3,4-c]pyridin-6-ylmethyl)phenyl]-3-(2-imidazo[1,2-b]pyridazin-3-ylethynyl)-4-methyl-benzamide] | 0.03 | – | – | – | 5.02 | 506 | 0.00557 | – | – | – | 0.00993 | 5.02 | 3.84 | 6.2 | 506 | 0.011 | 0.00993 | 0.00887 |
| Cc1ccc(C(=O)Nc2ccc(CN3Cc4ccc(O)cc4C3)c(Cl)c2)cc1C#Cc1cnc2cccnn12 [CD-1-067, N-(3-chloro-4-((5-hydroxyisoindolin-2-yl)methyl)phenyl)-3-(imidazo [1,2-b]pyridazin-3-ylethynyl)-4-methylbenzamide] | 0.00339 | – | – | – | – | <26 | 0.00461 | – | – | – | > 0.03 | – | – | – | – | > 0.03 | – | > 0.03 |
| Cc1cn(-c2cc(NC(=O)c3ccc(C)c(Nc4nccc(-c5cccnc5)n4)c3)cc(C(F)(F)F)c2)cn1 [Nilotinib, reference compound] | > 0.1 | – | – | – | – | – | 0.00058 | – | – | – | – | – | – | – | – | – | – | – |
| Cc1ccc(C(=O)Nc2ccc(CN3CCN(CCO)CC3)c(Cl)c2)cc1C#Cc1cnc2cccnn12 [TK3-141, N-[3-chloro-4-[[4-(2-hydroxyethyl)piperazin-1-yl]methyl]phenyl]-3-(2-imidazo[1,2-b]pyridazin-3-ylethynyl)-4-methyl-benzamide] | 0.00102 | 0.345 | 0.138 | 0.552 | 0.345 | 1158 | 0.00801 | 0.00031 | 0.000297 | 0.000285 | 0.0003 | – | – | – | – | – | – | – |
| Cc1ccc(C(=O)Nc2ccc(CN3CCN(CCO)CC3)c(C3CC3)c2)cc1C#Cc1cnc2cccnn12 [TK3-144, N-[3-cyclopropyl-4-[[4-(2-hydroxyethyl)piperazin-1-yl]methyl]phenyl]-3-(2-imidazo[1,2-b]pyridazin-3-ylethynyl)-4-methyl-benzamide] | 0.00199 | 0.103 | 0.105 | 0.102 | 0.103 | 263 | 0.0118 | 0.000413 | 0.000392 | 0.000371 | 0.00039 | – | – | – | – | – | – | – |
| Cc1ccc(C(=O)Nc2ccc(CN3Cc4cn[nH]c4C3)c(Cl)c2)cc1C#Cc1cnc2cccnn12 [ZD-3-167, N-[3-chloro-4-(4,6-dihydro-1H-pyrrolo[3,4-c]pyrazol-5-ylmethyl)phenyl]-3-(2-imidazo[1,2-b]pyridazin-3-ylethynyl)-4-methyl-benzamide] | 0.0137 | – | – | – | > 10 | >943 | 0.00728 | – | – | – | 0.0106 | 10.2 | > 10 | > 10 | 963 | 0.0111 | 0.0106 | 0.0101 |
